This is an account of results in US12509734B2, “Systems and methods to assess microbiomes and treatments thereof” (priority 2013, dated 2025).

This experiment relates to vaginal microbiota (PB-primer target groups). The experiment in a line: PB-qPCR microbial profiles of vaginal swabs of recurrent BV patients (Example 2). The experiment is classed as in vivo, human. Particulars: P4. Here is the method:
Sample processing, DNA extraction, and qPCR. Microbial gDNA was purified from swabs in 1-2 ml saline or lysis solution by a high SDS/alkaline lysis—phenol extraction protocol as described previously in Lambert and resuspended in 200 μL TE (10 mM Tris, pH 8, 1 mM EDTA). The lysed bacterial gDNA is stable for over one month at room temperature in lysis solution buffer (data not shown) and this buffer prevents changes in titer due to possible stability issues with different strains of bacteria in saline. An aliquot of purified DNA was assayed by qPCR with 18 universal and phylogenetic branch-inclusive (PB) primers and PCR conditions as described previously in Lambert. Additional primers, targeting the Enterococcus genus and its cytolysin gene CyILL, are provided in SEQ ID NOs: 92 and 95 (Enterococcus), and 93 and 96 (cytolysin gene). Each PB-primer targets a branch of the phylogenetic tree, from whole phyla to family or genus, and is far more inclusive than species-specific primers. Relative LB composition of the vaginal microbiome was determined by dividing the Lactobacillaceae titer by the sum of all PB-primers and by using the disclosed LB-blocker approach. Briefly, the LB-blocker approach uses the difference between the quantitative cycles (Cq) of two parallel qPCR reactions with universal primers targeting the 16S rRNA gene, when one of the reactions is in the presence of LB spp.-specific blocking oligomers (LB-blockers) that have been chemically modified to prevent extension and that partially overlap the universal primer binding site, effectively rendering the LB DNA “invisible” to the universal PCR, even when LB gDNA is present at great excess compared to non-LB gDNA, as is common in healthy and PT samples. PB-primers amplicons were selectively sequenced to confirm they were correctly targeted and to identify the dominant species. These were “cleaned” enzymatically as described in Lambert, and Sanger sequenced at Functional Biosciences (Madison, WI). Sequences were uploaded to Ribosomal Database Project II using its Pipeline function; species were identified based on phylogenetic trees constructed in Molecular Evolutionary Genetics Analysis (MEGA5) software.
Calculations. Cq values from qPCR reactions were converted to molecules per reaction by comparing sample Cq values to a standard curve from the same run of Cq values derived from dilutions of an amplicon of known target of known concentration. Molecules per reaction were converted to cells per swab, assuming an average of 5 ribosomal genes per cell and proportioned to the ratio of the volume of the sample used in the DNA prep and the amount of sample used in the qPCR reaction. Delta Cq (ΔCq) values of LB-blocked reaction pairs were calculated as Cq (blocked sample)−Cq (unblocked sample). Differences between patient groups were compared using the t test in (GraphPad software).
(Real-time PCR tracks product formation cycle by cycle.)

Molecules are shown by their SMILES.

With `CCS(=O)(=O)CCn1c([N+](=O)[O-])cnc1C` [tinidazole], the “Relative level of the 7 non-LB targets detected after treatment” value is recorded as “under 0.1%” and the “Response to treatment (microbial profile)” value is “responded well”.
